Assay results: patent US12419963B2, “Diels-Alder conjugation methods” (priority 2020, dated 2025)
Square brackets hold non-standard residues; d marks the D form. Peptide text beside a SMILES is read from it. * marks the point of attachment. Dolaproine = CO[C@@H]([C@@H]1CCCN1)[C@@H](C)C(=O)O; Dil = CC[C@H](C)[C@H](NC)[C@@H](CC(=O)O)OC; X1 = C[C@@H](N*)[C@H](O)c1ccccc1; NMeV = CN[C@H](C(=O)O)C(C)C

Columns and labels:
SKBR3 (Her2+) cells = test: In vitro cytotoxicity assay (CCK8 cell viability), SKBR3; format: cell-based
Experimental: (§1) In this Example, the ability of various antibody-drug conjugates and naked payloads to kill antigen-expressing tumor cells in vitro was assessed.
(§2) SKBR3 (Her2+) cells were seeded in 96 well plates at 8000 cells per well in complete growth media and grown overnight. For cell viability curves, serially diluted conjugates or naked payloads were added to the cells at final concentrations ranging from 100 nM to 5 pM and incubated for 3 days. NCI H929 and NCI H1975 (Her2−) cells were run as negative controls using similar conditions. To measure viability, cells were incubated with CCK8 (Dojindo) for the final 2 hours and the absorbance at 450 nm (OD450) was determined on a Victor (Perkin Elmer). Background OD450 levels determined from digitonin (40 nM) treated cells were subtracted from all wells and viability was expressed as a percentage of the untreated controls. IC50 values were determined from a four-parameter logistic equation over a 10-point response curve (GraphPad Prism). […] The interchain disulfide conjugates had similar IC50 values as the transglutaminase site-specific Diels-Alder conjugates. […] IC50 values are corrected for payload equivalents and the results of other transglutaminase site-specific Diels-Alder conjugates' cell viability are shown in Table 5. […]

NCI H929 (Her2−) cells = test: In vitro cytotoxicity assay (CCK8 cell viability), NCI H929 negative control; format: cell-based
Experimental: as §1, §2

## CC[C@H](C)[C@@H]([C@@H](CC(=O)N1CCC[C@H]1[C@H](OC)[C@@H](C)C(=O)N[C@H](C)[C@H](O)c1ccccc1)OC)N(C)C(=O)[C@@H](NC(=O)[C@@H](NC)C(C)C)C(C)C [MMAE, Monomethyl auristatin E] (H-[NMeV]V[Dil][Dolaproine]-X1)
SKBR3 (Her2+) cells; Homo sapiens, SK-BR-3, 72 h
  IC50: 0.031 nM
SKBR3 (Her2+) cells; SK-BR-3 cells, 3 days incubation, CCK8
  % Kill: 97.3%
NCI H929 (Her2−) cells; Homo sapiens, NCI-H929, 72 h
  IC50: 0.209 nM
NCI H929 (Her2−) cells; NCI H929 cells (HER2-), 3 days incubation, CCK8
  % Kill: 99.7%
